“Also recorded” adds a separate entry of the source. Where a name gives a salt, the structure may show the parent alone.
Columns and labels:
[1] = tested on: ACE; assay: ACE expression in HMVEC-L by Western blotting; assay type: cell-based, human
From the text: Histology and immunohistochemistry. The removed kidneys and lungs were fixed in 10% buffered formalin, embedded in paraffin, and then cut into 4-10.1 μm sections. The sections were stained with H&E, PAS, and Masson's trichrome. Another tissue sample was embedded in OCT compound (Sakura Finetek) and frozen in liquid nitrogen for immunostaining. Sections were cut to a thickness of 3 μm with a cryostat and fixed in acetone. High-power fields were used to examine the sections for evidence of focal sclerosis (J. Hypertens. 13:1785-1790, J. Lab. Clin. Med. 115:165-173). Glomerular sclerosis was assessed by semiquantitative score (grades 0 to +4) using the method of Raij et al. (Kidney Int. 26:137-143): grade 0, no sclerosis of glomeruli; grade 1, sclerosis of up to 25% of glomerulus; grade 2, sclerosis of 25%-50% of glomerulus; grade 3, sclerosis of 50%-75% of glomerulus; grade 4, sclerosis of 75%-100% of glomerulus. At least 50 glomeruli were evaluated under ×400 magnification and results averaged for each kidney (Mdk^+/+: 2 weeks, n=5; 4 weeks, n=4; 8 weeks, n=4; Mdk^−/−: 2 weeks, n=4; 4 weeks, n=3; 8 weeks, n=3). Immunostaining for ACE and MK was performed on buffered formalin-fixed tissues. Sections were deparaffinized, rehydrated, incubated in 3% hydrogen peroxide in methanol to block endogenous peroxidase, and washed in 10% normal goat serum (Dako) in PBS to block nonspecific binding. Subsequently, sections were incubated with mouse anti-ACE monoclonal antibody (dilution, 1:400; Chemicon International, Millipore) or anti-MK monoclonal antibody (dilution, 1:100) overnight at 4° C. as described previously (22), followed by a conjugate of polyclonal goat anti-mouse IgG antibody and HRP-labeled polymer (Histofine Simple Stain; Nichirei) for 1 hour at room temperature as a secondary antibody. The staining was visualized with 3-3′ diaminobenzidine (Nichirei) to produce a brown color. The sections were covered with 90% glycerol containing p-phenylenediamine and were examined by electron microscopy (H-7100; Hitachi). For double immunofluorescence staining of MK and thrombomodulin as a marker of the vascular endothelium, the cryosections of lungs were first incubated with chicken anti-human MK (dilution, 1:200) and then with rabbit anti-rat thrombomodulin (dilution, 1:1,000) (J. Immunol. 150:5633-5646), followed by incubation with FITC-labeled rabbit anti-chicken IgG (dilution, 1:160) and rhodamine-labeled goat anti-rabbit IgG (dilution, 1:320) as secondary antibodies. […] The lung and kidney section from each mouse was viewed under ×400 magnification, and then macrophages or neutrophils were counted from 10 fields and averaged. […]

[2] = Body weight, blood urea nitrogen and serum creatinine after 5/6 nephrectomy, drug treatment model; assay type: in vivo; details: Mdk+/+ mice; for BUN (blood urea nitrogen) / Cre (serum creatinine): 2 weeks after nephrectomy, oral daily at indicated dose, mean ± SD; for Abnormal elevation of blood urea nitrogen and serum creatinine: 2 weeks after 5/6 nephrectomy
Method: Animals and experimental design. Mice deficient in Mdk were generated as described previously (Genes Cells. 3:811-822). After backcrossing of Mdk+/− mice for 14 generations with 129/Sv mice, Mdk+/− mice were mated with each other to generate Mdk^+/+ and Mdk^−/− mice, which were used in this study. Experiments were performed on 8 to 12-week-old female mice weighing 20-25 g that were housed under controlled environmental conditions and maintained with standard food and water. Animal care and experimental procedures were approved by the Animal Experimentation Committee of the Nagoya University Graduate School of Medicine and were conducted according to the Nagoya University Regulations for Experiments. Renal ablation was performed as described previously. Briefly, mice were anesthetized by diethyl ether. The flank region was shaved, and the animals were placed on a heating pad to maintain a constant body temperature (37° C.). Under anesthesia, right flank incisions were made, and the right kidney was removed. Seven days later, mice were anesthetized as above, and two-thirds of the mass of the left kidneys was ablated (Mdk^+/+: 2 weeks, n=13; 4 weeks, n=13; 8 weeks, n=8; Mdk^−/−: 2 weeks, n=10; 4 weeks, n=10; 8 weeks, n=4). After the renal ablation, the flanks were closed in 2 layers with 5-0 silk sutures. The animals received 100 ml/kg warm saline instilled into the peritoneal cavity during the procedure and were allowed to recover with free access to food and water. In the control mice, a sham operation was performed (Mdk^+/+, n=11; Mdk^−/−, n=8).
(§1) Drug treatment model. In the drug treatment studies, Mdk^+/+ mice were randomly assigned to receive one of the following 5 treatments after 5/6 nephrectomy and were orally treated daily starting from 24 hours after 5/6 nephrectomy: vasodilator (hydralazine hydrochloride; Novartis) at a dose of 10 mg/kg/d (group 1, n=3); ACE inhibitor (temocapril; Daiichi Sankyo Co.) at a dose of 3 mg/kg/d (group 2, n=3); angiotensin receptor blocker (olmesartan; Daiichi Sankyo Co.) at a dose of 3 mg/kg/d (group 3, n=3); antioxidative reagent (tempol; Alexis Biochemicals) at a dose of 3 mmol/l in drinking solution after 5/6 nephrectomy (group 4, n=6); and sham operation (group 5, n=6). Drug treatment was performed […]. In the present study, we determined the dosage according to previous reports (Hypertension. 13:582-588, J. Cardiovasc. Pharmacol. 40:533-542, Hypertension. 43:841-848). Blood pressure was measured by the tail-cuff method at 2 weeks, as described below under Blood pressure monitoring. Mice were sacrificed at 2 weeks after 5/6 nephrectomy, and blood and tissue samples were collected.
Sample collection. Mice were sacrificed at 2, 4, and 8 weeks after 5/6 nephrectomy. The remnant kidney, lung, brain, heart, and liver were removed rapidly, snap-frozen in liquid nitrogen, and stored at −80° C. until examinations were performed. Each tissue was processed for histology, protein extraction, and RNA extraction. Blood samples were collected into chilled tubes for measurement of renal function parameters and into chilled tubes containing EDTA for Ang II measurements. Serum and plasma were separated by centrifugation (500 g for 10 minutes) and stored at −80° C. until measurement were performed. Serum creatinine, blood urea nitrogen (Mdk^+/+: sham, n=6; 2 weeks, n=10; 4 weeks, n=9; 8 weeks, n=8; Mdk^−/−: sham, n=7; 2 weeks, n=7; 4 weeks, n=6; 8 weeks, n=4), and Ang II concentrations (Mdk^+/+: sham, n=6; 2 weeks, n=6; 4 weeks, n=8; Mdk^−/−: sham, n=6; 2 weeks, n=7; 4 weeks, n=5) were measured by Mitsubishi BCL.

[3] = tested on: Mdk+/+ mice after 5/6 nephrectomy; assay: Blood pressure by tail-cuff method, drug treatment model after 5/6 nephrectomy; assay type: in vivo; details: 2 weeks after 5/6 nephrectomy
Method: as §1
(§2) Blood pressure monitoring. Blood pressure was measured in restrained, conscious mice by the indirect tail-cuff technique under unstressed conditions (BP-98A; Softron) at 0, 2, 4, 6, and 8 weeks after 5/6 nephrectomy (J. Lab. Clin. Med. 78:957-962). Before measurement, the mice were warmed with a heating pad for 5 minutes. A total of 7-10 readings were taken for each mouse, at 1- to 2-minute intervals.

[4] = tested on: Mdk+/+ mice after 5/6 nephrectomy; assay: Kidney histology (PAS staining) after 5/6 nephrectomy, drug treatment model; assay type: in vivo; details: 2 weeks after 5/6 nephrectomy; for Renal tubulointerstitial damage: PAS staining
Method: as §1
Histology and immunohistochemistry.

[5] = tested on: Ang II; assay: Plasma Ang II concentration after 5/6 nephrectomy; assay type: in vivo; details: Mdk+/+ mice after 5/6 nephrectomy
Method: as §1, with “Mice were sacrificed at 2 weeks after 5/6 nephrectomy, and blood and tissue samples were collected.” left out
Sample collection. […] Serum creatinine, blood urea nitrogen (Mdk^+/+: sham, n=6; 2 weeks, n=10; 4 weeks, n=9; 8 weeks, n=8; Mdk^−/−: sham, n=7; 2 weeks, n=7; 4 weeks, n=6; 8 weeks, n=4), and Ang II concentrations (Mdk^+/+: sham, n=6; 2 weeks, n=6; 4 weeks, n=8; Mdk^−/−: sham, n=6; 2 weeks, n=7; 4 weeks, n=5) were measured by Mitsubishi BCL.

[6] = tested on: MK; assay: MK protein expression in lung and kidney by Western blotting after 5/6 nephrectomy; assay type: in vivo; details: Mdk+/+ mice after 5/6 nephrectomy
Method: as §1
Western blot analysis. Mouse kidney, lung, brain, heart, and liver tissues were snap-frozen in liquid nitrogen for protein isolation. […] The density of each band was measured using the public domain NIH Image program (http://rsb.info.nih.gov/nih-image/).

[7] = tested on: HMVEC-L; assay: Ang II concentration in HMVEC-L (conversion from Ang I to Ang II); assay type: cell-based, human; details: HMVEC-L treated 36 hours with MK 100 ng/ml plus heparin 20 μg/ml or heparin alone, then Ang I added
Method: Ang II concentration in HMVEC-L. After reaching confluence, HMVEC-L were washed with PBS and cultured for 24 hours in essential basal medium containing 0.5% FBS. These cells were exposed to 100 ng/ml rh-MK plus 20 μg/ml heparin or 20 μg/ml heparin alone in essential basal medium containing 0.5% FBS for 36 hours. After stimulation, HMVEC-L were washed with PBS and exposed to 500 pM Ang I (Sigma-Aldrich) for 10 and 25 minutes. Supernatants were collected into chilled tubes, and then the Ang II concentration was measured as previously described (Hypertension. 39:129-134).

[8] = tested on: Mdk-/- mice after 5/6 nephrectomy; assay: rh-MK and -PTN treatment model (osmotic pump), blood pressure by tail-cuff; assay type: in vivo; details: 1.6 mg/ml, 100 μl by osmotic pump over 14 days
Method: rh-MK and -PTN treatment model. In the pump study, MK protein in saline (1.6 mg/ml) (n=5), PTN in saline (1.6 mg/ml; n=5), or saline alone (n=5) was infused using an osmotic pump (ALZA Corp.) into Mdk^−/− mice after 5/6 nephrectomy. The pumps continuously infused a total of 100 μl over 14 days. The pumps were implanted under the dorsal skin the next day after 5/6 nephrectomy. Blood pressure was measured by the indirect tail-cuff technique at 0 and 2 weeks after 5/6 nephrectomy. Mice were sacrificed at 2 weeks after 5/6 nephrectomy, and blood and tissue samples were collected.
as §2

Molecule: CCCCCCCCCCCCCC(=O)O[C@@H]1[C@@H](C)[C@@]2(O)[C@@H](C=C(CO)C[C@]3(O)C(=O)C(C)=C[C@@H]23)[C@@H]2C(C)(C)[C@]12OC(C)=O [PMA]
- ACE expression in HMVEC-L ([1]; PMA 50 ng/ml): induced

Molecule: CN(C)CCCn1cc(C2=C(c3c[nH]c4ccccc34)C(=O)NC2=O)c2ccccc21 [BIS, bisindolylmaleimide I]
- MK-mediated increase in ACE expression ([1]; BIS 5 μM added 1 hour before 36-hour treatment with rh-MK plus heparin): blocked
- PMA-induced increase in ACE expression ([1]; BIS added 1 hour before PMA): blocked

Molecule: CCCc1nc(C(C)(C)O)c(C(=O)O)n1Cc1ccc(-c2ccccc2-c2nnn[nH]2)cc1 [Olmesartan, olmesartan]
- BUN (blood urea nitrogen) [2]: 36.0 ± 1.0^B mg/dl
- Cre (serum creatinine) [2]: 0.21 ± 0.01^A mg/dl

Molecule: NNc1nncc2ccccc12 [Hydralazine, hydralazine hydrochloride]
- Blood pressure / hypertension [3]: ameliorated hypertension
- BUN (blood urea nitrogen) [2]: 63.3 ± 7.6 mg/dL
- Cre (serum creatinine) [2]: 0.53 ± 0.12 mg/dL
- Abnormal elevation of blood urea nitrogen and serum creatinine [2]: not
- Renal tubulointerstitial damage [4]: not

Molecule: CC1(C)CC(O)CC(C)(C)N1[O] [Tempol, 4-hydroxy-2,2,6,6-tetramethylpiperidine-N-oxyl]
- Blood pressure / hypertension [3]: reduced
- Plasma Ang II levels [5]: reduced
- BUN (blood urea nitrogen) [2]: 41.2 ± 3.9^B mg/dl
- Cre (serum creatinine) [2]: 0.25 ± 0.04^A mg/dl
- Abnormal elevation of blood urea nitrogen and serum creatinine [2]: significantly reduced
- MK expression in the lung ([6]; tempol 3 mmol/l in drinking water): reduced MK expression to normal levels
- MK expression in the kidney ([6]; tempol in drinking water): reduced
- Glomerular sclerosis [4]: ameliorated
- Renal tubulointerstitial damage [4]: slight; also recorded: ameliorated

Molecule: CCOC(=O)[C@H](CCc1ccccc1)N[C@H]1CS[C@H](c2cccs2)CN(CC(=O)O)C1=O [Temocapril, temocapril]
- Blood pressure / hypertension [3]: reduced
- BUN (blood urea nitrogen) [2]: 30.3 ± 2.9^A mg/dl
- Cre (serum creatinine) [2]: 0.21 ± 0.04^A mg/dl
- Abnormal elevation of blood urea nitrogen and serum creatinine [2]: ameliorated
- Renal tubulointerstitial damage [4]: reduced

Molecule: heparin
- Conversion of Ang I to Ang II [7]: did not show such a conversion

B1: PTN: recombinant human pleiotrophin, shows 50% homology with MK (protein, UniProt P21246 33-168, looked up)
Pleiotrophin: GKKEKPEKKVKKSDCGEWQWSVCVPTSGDCGLGTREGTRTGAECKQTMKTQRCKIPCNWKKQFGAECKYQFQAWGECDLNTALKTRTGSLKRALHNAECQKTVTISKPCGKLTKPKPQAESKKKKKEGKKQEKMLD
- Hypertension (SBP) [8]: neither induced hypertension
